Measurements published in USRE47193E1, “Selectively substituted quinoline compounds” (EISAI R&D MANAGEMENT CO., LTD., priority 2013, dated 2019).

How the values were obtained:
mouse TLR7 = target: T1, mouse TLR7 (Mus musculus, UniProt P58681); test: Short-term in vivo (STIV) assay: oral dosing, R848 s.c., plasma IL-6; design: female BALB/c mice (Jackson Labs, Bar Harbor, Me.) were dosed by oral gavage; tissue Jackson Labs; host or cells: living female BALB/c mice; plasma IL-6 after s.c. R848
T1 sequence (P58681 27-1050): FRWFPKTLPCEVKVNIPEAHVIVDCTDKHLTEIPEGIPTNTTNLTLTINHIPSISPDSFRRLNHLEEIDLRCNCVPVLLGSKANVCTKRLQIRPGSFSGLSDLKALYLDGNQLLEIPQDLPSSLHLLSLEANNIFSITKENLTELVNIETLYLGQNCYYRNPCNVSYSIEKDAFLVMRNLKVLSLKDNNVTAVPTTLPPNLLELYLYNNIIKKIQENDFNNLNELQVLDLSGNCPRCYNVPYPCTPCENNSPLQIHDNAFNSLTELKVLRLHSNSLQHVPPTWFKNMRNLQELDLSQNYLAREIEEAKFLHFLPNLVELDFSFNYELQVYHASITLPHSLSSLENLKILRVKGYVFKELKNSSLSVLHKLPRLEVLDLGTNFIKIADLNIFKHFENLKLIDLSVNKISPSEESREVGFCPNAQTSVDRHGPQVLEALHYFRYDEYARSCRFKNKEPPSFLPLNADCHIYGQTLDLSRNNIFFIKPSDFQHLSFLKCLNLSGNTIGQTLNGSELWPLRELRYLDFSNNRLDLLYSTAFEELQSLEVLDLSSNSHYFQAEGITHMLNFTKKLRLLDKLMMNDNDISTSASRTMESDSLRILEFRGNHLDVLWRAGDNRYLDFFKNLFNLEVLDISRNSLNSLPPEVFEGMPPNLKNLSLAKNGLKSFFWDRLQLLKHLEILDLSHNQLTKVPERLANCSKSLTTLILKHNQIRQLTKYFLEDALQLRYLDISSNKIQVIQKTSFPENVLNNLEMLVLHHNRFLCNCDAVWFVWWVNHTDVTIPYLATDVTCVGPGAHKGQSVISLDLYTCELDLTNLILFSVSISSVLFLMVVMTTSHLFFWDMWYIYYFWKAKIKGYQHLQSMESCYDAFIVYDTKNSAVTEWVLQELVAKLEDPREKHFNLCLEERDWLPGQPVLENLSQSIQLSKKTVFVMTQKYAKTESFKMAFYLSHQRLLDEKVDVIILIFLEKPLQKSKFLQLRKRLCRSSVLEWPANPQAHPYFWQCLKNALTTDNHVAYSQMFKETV
Experimental: Figure Legend: Female BALB/c mice were dosed by oral gavage with Vehicle alone (0.5% aqueous methyl-cellulose) or compound formulated in Vehicle at 33 mg/kg, 100 mg/kg or 300 mg/kg. […] (FIG. 1A).
Short-term in vivo (STIV) assay: To assess compound potency in vivo against mouse TLR7, a short-term in vivo (STIV) assay was utilized. Briefly, mice were orally dosed with compounds and at various time points afterwards were injected subcutaneously with agonist R848 to stimulate TLR7. The plasma IL-6 level following R848 stimulation was then measured by ELISA to assess compound potency and duration-of-action.
Short-term in vivo (STIV) assay. Six to eight week old female BALB/c mice (Jackson Labs, Bar Harbor, Me.) were dosed by oral gavage in 200 ul volume with antagonist compounds formulated in 0.5% aqueous methyl-cellulose (Sigma, St. Louis, Mo.). At various time points afterwards, mice were injected subcutaneously (s.c.) in 100 ul volume with 15 ug R848 (Resiquimod; GLSynthesis, Worcester, Mass.) to stimulate TLR7.

Human TLR7/8 = test: Human PBMC cell-based assay, TLR7/8 stimulus (RNA-Ig), cytokine ELISA; details: primary human PBMC assay, TLR7/8 potency; ligand not given; read-out: Human PBMCs IC50
Experimental: Human PBMC Cell-Based Assay. Human peripheral blood mononuclear cells (PBMC) were isolated from freshly-drawn heparinized (10 USP units/ml, Hospira, Lakeforest, Ill.) healthy donor whole blood by density gradient (Histopaque® 1077, Sigma, Inc., St. Louis, Mo.). Briefly, 25 ml blood was diluted with 15 ml PBS (without Ca^2+, Mg^2+) in a 50 ml conical tube, and 12 ml Histopaque was underlaid using a spinal needle. Tubes were centrifuged for 45 minutes at 1200 rpm (350×g), and PBMC were collected from the buffy coat. Cells were then washed twice in PBS, and red blood cells were lysed by suspension in 5 ml ammonium chloride solution (1× Red Blood Cell Lysis Buffer, eBioscience) for 5 minutes at room temperature. After a final wash in PBS, PBMC were resuspended at a final concentration of 2×10^6/ml in RPMI-1640 media with L-glutamine (Invitrogen) and supplemented with 25 mM HEPES (Mediatech, Inc, Manassas Va.), 10% fetal bovine serum (HyClone, Logan, Utah), and Penicillin-Streptomycin-Glutamine (Mediatech) and plated at 100 ul/well (2×10^5 cells/well) in tissue culture treated 96-well plates (Falcon).
Antagonist compounds solubilized and serial diluted in 100% DMSO were added in triplicate to cells to yield a final concentration of 0.1% DMSO (v/v). Hydroxychloroquine (Acros Organics) solubilized and serial diluted in PBS was added in triplicate to cells. PBMC were incubated with antagonist compounds or HCQ for 30 minutes at 37° C., 5% CO2 before adding various TLR agonist reagents in 100 ul complete media per well as follows (final concentrations indicated): R848 (Resiquimod; GLSynthesis, Worcester, Mass.) at 1 uM for TLR7 and TLR8, LPS (Sigma) at 10 ng/ml for TLR4, and CpG-2216 (InvivoGen) at 5 ug/ml for TLR9. To prepare a TLR7/8 agonist that mimics RNA-containing auto-antibody immune complexes in lupus patients, a 26-mer RNA with a sequence derived from human U1 snRNA stem loop IV [(sequence: […]-[…] (SEQ ID NO: 2) with phosphorothioate backbone] was synthesized (Dharmacon, Inc., Lafayette, Colo.), which has been shown previously to be a potent TLR7 and TLR8 agonist. This RNA molecule was diluted to 2.5 μM in serum-free RPMI, and mouse anti-human single stranded DNA monoclonal antibody (MAB3034, Millipore, Inc., Billerica, Mass.), which also cross-reacts with RNA, was added at a 1:25 dilution or at 1 ug/ml. The resulting “RNA-Ig” stimulus was incubated at room temperature for 15-30 minutes before adding to cells. PBMC were incubated with the various TLR agonists for 20 hours at 37° C., 5% CO2. Cell culture supernatants were collected, and levels of various human cytokines were assessed as indicated by standard ELISA procedure according to the manufacturer's recommended protocol (BD Biosciences, Inc., San Diego, Calif.). In a subsequent assay (Table 6) the ability of ER-899742 to block stimulation of normal PBMC by various TLR7/8 ligands, but not DNA-mediated activation of TLR9, was examined. In this assay cells were plated at 1×10^5 cells/well in 100 ul in 96-well plates.

## CC1CN(c2ccc(C#N)c3ncccc23)CC(C(=O)NC2CNCCC2F)O1.Cl (mixture of isomers) [ER-899477]
Mouse TLR7; 6 h, 100 mg/kg
  % Suppression vs. Vehicle: 96%
Mouse TLR7; 13 h, 100 mg/kg
  % Suppression vs. Vehicle: 68%
Human TLR7/8
  IC50: 0.006 µM

## CC1CN(c2ccc(C#N)c3ncccc23)CC(CN2CCNC(C)C2C)O1 (stereo not drawn) [ER-887137]
Mouse TLR7; 3 h, 33 mg/kg
  % Suppression vs. Vehicle: 100%
Mouse TLR7; 3 h, 100 mg/kg
  % Suppression vs. Vehicle: 100%
Mouse TLR7; 3 h, 300 mg/kg
  % Suppression vs. Vehicle: 100%
Mouse TLR7; 6 h, 33 mg/kg
  % Suppression vs. Vehicle: 99%
Mouse TLR7; 6 h, 100 mg/kg
  % Suppression vs. Vehicle: 100%
Mouse TLR7; 6 h, 300 mg/kg
  % Suppression vs. Vehicle: 100%
Mouse TLR7; 19 h, 33 mg/kg
  % Suppression vs. Vehicle: 38%
Mouse TLR7; 19 h, 100 mg/kg
  % Suppression vs. Vehicle: 63%
Mouse TLR7; 19 h, 300 mg/kg
  % Suppression vs. Vehicle: 100%
Human TLR7/8
  IC50: 0.002 µM

## C[C@@H]1CN(c2ccc(C#N)c3ncccc23)C[C@H](CN2CCN[C@@H](C)C2)O1 [ER-887270]
Mouse TLR7; 6 h, 33 mg/kg
  % Suppression vs. Vehicle: 98%
Mouse TLR7; 13 h, 33 mg/kg
  % Suppression vs. Vehicle: 37%
Mouse TLR7; 13 h, 100 mg/kg
  % Suppression vs. Vehicle: 81%
Mouse TLR7; 13 h, 300 mg/kg
  % Suppression vs. Vehicle: 99%
Mouse TLR7; 24 h, 33 mg/kg
  % Suppression vs. Vehicle: 25%
Mouse TLR7; 24 h, 100 mg/kg
  % Suppression vs. Vehicle: 26%
Mouse TLR7; 24 h, 300 mg/kg
  % Suppression vs. Vehicle: 100%
Human TLR7/8
  IC50: 0.001 µM

## Cc1cc(CO)cc(-c2ccc(C#N)c3ncccc23)c1 [ER-888201]
Mouse TLR7; 6 h, 33 mg/kg
  % Suppression vs. Vehicle: 35%
Mouse TLR7; 6 h, 100 mg/kg
  % Suppression vs. Vehicle: 50%
Mouse TLR7; 6 h, 300 mg/kg
  % Suppression vs. Vehicle: 40%
Mouse TLR7; 19 h, 33 mg/kg
  % Suppression vs. Vehicle: 45%
Mouse TLR7; 19 h, 100 mg/kg
  % Suppression vs. Vehicle: 71%
Mouse TLR7; 19 h, 300 mg/kg
  % Suppression vs. Vehicle: 79%
Human TLR7/8
  IC50: 0.004 µM

## CC1CN(c2ccc(C#N)c3ncccc23)CC(CN2CCC(NC(=O)c3ccccc3)CC2)O1 (stereo not drawn) [ER-888321]
Mouse TLR7; 3 h, 33 mg/kg
  % Suppression vs. Vehicle: 98%
Mouse TLR7; 3 h, 100 mg/kg
  % Suppression vs. Vehicle: 100%
Mouse TLR7; 6 h, 33 mg/kg
  % Suppression vs. Vehicle: 86%
Mouse TLR7; 6 h, 100 mg/kg
  % Suppression vs. Vehicle: 100%
Mouse TLR7; 13 h, 33 mg/kg
  % Suppression vs. Vehicle: 87%
Mouse TLR7; 13 h, 100 mg/kg
  % Suppression vs. Vehicle: 100%
Mouse TLR7; 19 h, 33 mg/kg
  % Suppression vs. Vehicle: 59%
Mouse TLR7; 19 h, 100 mg/kg
  % Suppression vs. Vehicle: 59%
Human TLR7/8
  IC50: 0.022 µM

## CC(C)N1CCN(C[C@H]2CN(c3ccc(C#N)c4ncccc34)C[C@@H](C)O2)CC1 [ER-888322]
Mouse TLR7; 6 h, 33 mg/kg
  % Suppression vs. Vehicle: 99%
Mouse TLR7; 6 h, 100 mg/kg
  % Suppression vs. Vehicle: 100%
Mouse TLR7; 6 h, 300 mg/kg
  % Suppression vs. Vehicle: 100%
Mouse TLR7; 19 h, 33 mg/kg
  % Suppression vs. Vehicle: 24%
Mouse TLR7; 19 h, 100 mg/kg
  % Suppression vs. Vehicle: 82%
Mouse TLR7; 19 h, 300 mg/kg
  % Suppression vs. Vehicle: 100%
Human TLR7/8
  IC50: 0.018 µM

## C[C@@H]1CN(c2ccc(C#N)c3ncccc23)C[C@H](CN2CCN(C)[C@H](C)C2)O1 [ER-890346]
Mouse TLR7; 3 h, 33 mg/kg
  % Suppression vs. Vehicle: 99%
Mouse TLR7; 19 h, 11 mg/kg
  % Suppression vs. Vehicle: 0%
Mouse TLR7; 19 h, 33 mg/kg
  % Suppression vs. Vehicle: 20%
Human TLR7/8
  IC50: 0.006 µM

## CC1CN(c2ccc(C#N)c3ncccc23)CC(C(=O)Nc2ccncc2)O1 (stereo not drawn) [ER-899282]
Human TLR7/8
  IC50: 0.034 µM

## CC1CN(c2ccc(C#N)c3ncccc23)CC(C(=O)NCc2ccn[nH]2)O1 (stereo not drawn) [ER-899287]
Human TLR7/8
  IC50: 0.12 µM

## CC1CN(c2ccc(C#N)c3ncccc23)CC(C(=O)NCC2CCCCN2C)O1 (stereo not drawn) [ER-899293]
Human TLR7/8
  IC50: 0.013 µM

## C[C@@H]1CN(c2ccc(C#N)c3ncccc23)C[C@H](C(=O)Nc2n[nH]cc2C#N)O1 [ER-899295]
Human TLR7/8
  IC50: 0.032 µM

## C[C@@H]1CN(c2ccc(C#N)c3ncccc23)C[C@H](C(=O)N[C@H]2CN(C)C[C@H]2F)O1 [ER-899332]
Human TLR7/8
  IC50: 0.014 µM

## CC1CNCC(CNC(=O)C2CN(c3ccc(C#N)c4ncccc34)CC(C)O2)O1 (stereo not drawn) [ER-899366]
Human TLR7/8
  IC50: 0.001 µM

## CC1CN(c2ccc(C#N)c3ncccc23)CC(C(=O)N2CC3CNCC3C2)O1 (stereo not drawn) [ER-899367]
Human TLR7/8
  IC50: 0.012 µM

## CC1CN(c2ccc(C#N)c3ncccc23)CC(C(=O)NCC2CCCN2)O1 (stereo not drawn) [ER-899414]
Human TLR7/8
  IC50: 0.025 µM

## CC1CN(c2ccc(C#N)c3ncccc23)CC(C(=O)NCC2CCCCN2)O1 (stereo not drawn) [ER-899415]
Human TLR7/8
  IC50: 0.013 µM

## C[C@@H]1CN(c2ccc(C#N)c3ncccc23)C[C@H](C(=O)NC2CC3CCC(C2)N3)O1 (stereo partly drawn) [ER-899416]
Human TLR7/8
  IC50: 0.431 µM

## CNC(=O)[C@H]1CN(c2ccc(C#N)c3ncccc23)C[C@@H](C)O1 [ER-899431]
Human TLR7/8
  IC50: 0.347 µM

## CC1CN(c2ccc(C#N)c3ncccc23)CC(C(=O)N2CCC(N(C)C)CC2)O1 (stereo not drawn) [ER-899459]
Human TLR7/8
  IC50: 0.016 µM

## CC1CN(c2ccc(C#N)c3ncccc23)CC(C(=O)NC2CC3(CNC3)C2)O1 (stereo not drawn) [ER-899479]
Human TLR7/8
  IC50: 0.002 µM

## C[C@@H]1CN(c2ccc(C#N)c3ncccc23)C[C@H](C(=O)N2CCC(N)CC2)O1 [ER-899588]
Human TLR7/8
  IC50: 0.007 µM

## CCN1CCC(NC(=O)[C@H]2CN(c3ccc(C#N)c4ncccc34)C[C@@H](C)O2)CC1 [ER-899626]
Human TLR7/8
  IC50: 0.001 µM
